Data taken from paper PMC11436758, “Computer-aided drug design to generate a unique antibiotic family” (Nature Communications, 2024).
Converted amounts (≈) assume the structure as drawn.

Legend:
Assay type in all cases: cell-based
[1] = system: S. aureus (VISA); experiment: MIC, clinical and laboratory strains
Protocol: (§1) The medium employed for the assay was Mueller Hinton II Broth (MHB II; Becton-Dickinson, Sparks, MD, USA). Agar plates used for the organisms were trypticase soy agar plus 5% sheep blood (BD; Sparks, MD, USA). MIC assay plates were prepared using the CLSI broth microdilution procedure. Automated liquid handlers (Multidrop 384, Biomek 2000 and Biomek FX) were used to conduct serial dilutions and liquid transfers. A standardized inoculum of each organism was prepared per CLSI methods. Suspensions were prepared to equal a 0.5 McFarland standard, followed by a 1:20 dilution in test media. The inocula were dispensed into sterile reservoirs divided by length (Beckman Colter) and the Biomek 2000 was used to inoculate the plates. Daughter plates were placed on the Biomek 2000 work surface in reverse orientation so that inoculation took place from low to high drug concentration. The Biomek 2000 delivered 10 μL of the diluted suspension into each well. These inoculations yielded a final cell concentration in the daughter plates of ~5 × 10^5 colony-forming units/mL in each well. The wells of the daughter plates ultimately contained 185 μL of broth, 5 μL of drug solution, and 10 μL of bacterial inoculum. Plates were covered with a sterile lid on the top plate, placed in plastic bags, and incubated at 35 °C for ~18 h. The microplates were viewed from the bottom using a plate viewer and the MIC was read. The MIC was recorded as the lowest concentration of drug that inhibited visible growth of the organism.

[2] = system: S. aureus (MSSA); experiment: MIC, clinical and laboratory strains
Protocol: as §1

[3] = system: S. aureus (MRSA); experiment: MIC, clinical and laboratory strains
Protocol: as §1

[4] = system: 102 ATCC strains and clinical isolates of Staphylococcus, Streptomyces, and Enterococcus; experiment: MIC panel summary over all strains; conditions: of 102 strains
Protocol: We also sought to determine if DNM0547 was bacteriostatic or bactericidal. Time kill experiments were carried out using increasing doses of DNM0547 against two different strains of MRSA.
as §1

CN[C@H](CC(C)C)C(=O)N[C@H]1C(=O)N[C@@H](CC(N)=O)C(=O)N[C@H]2C(=O)N[C@H]3C(=O)N[C@H](C(=O)N[C@H](C(=O)O)c4cc(O)cc(O)c4-c4cc3ccc4O)[C@H](O)c3ccc(c(Cl)c3)Oc3cc2cc(c3O[C@@H]2O[C@H](CO)[C@@H](O)[C@H](O)[C@H]2O[C@H]2C[C@](C)(N)[C@H](O)[C@H](C)O2)Oc2ccc(cc2Cl)[C@H]1O [vancomycin]
MIC ([1]; S. aureus (VISA) 1724): 4 µg/mL (≈ 2.76 µM)
MIC ([1]; S. aureus (VISA) 2012): 8 µg/mL (≈ 5.52 µM)
MIC ([1]; S. aureus (VISA) 2013): 4 µg/mL (≈ 2.76 µM)
MIC ([1]; S. aureus (VISA) 2014): 4 µg/mL (≈ 2.76 µM)
MIC ([1]; S. aureus (VISA) 2015): 4 µg/mL (≈ 2.76 µM)
MIC ([1]; S. aureus (VISA) 2016): 4 µg/mL (≈ 2.76 µM)
MIC ([1]; S. aureus (VISA) 2017): 8 µg/mL (≈ 5.52 µM)
MIC ([1]; S. aureus (VISA) 2018): 4 µg/mL (≈ 2.76 µM)
MIC ([1]; S. aureus (VISA) 2019): 4 µg/mL (≈ 2.76 µM)
MIC ([1]; S. aureus (VISA) 2123): 8 µg/mL (≈ 5.52 µM)
MIC ([1]; S. aureus (VISA) NRS1/1723): 8 µg/mL (≈ 5.52 µM)
MIC ([2]; S. aureus (MSSA) 2127): 1 µg/mL (≈ 0.69 µM)
MIC ([2]; S. aureus (MSSA) 6167): 0.5 µg/mL (≈ 0.345 µM)
MIC ([2]; S. aureus (MSSA) 6168): 0.5 µg/mL (≈ 0.345 µM)
MIC ([2]; S. aureus (MSSA) 6170): 0.5 µg/mL (≈ 0.345 µM)
MIC ([2]; S. aureus (MSSA) 6316): 1 µg/mL (≈ 0.69 µM)
MIC ([2]; S. aureus (MSSA) 6317): 0.5 µg/mL (≈ 0.345 µM)
MIC ([2]; S. aureus (MSSA) 6318): 0.5 µg/mL (≈ 0.345 µM)
MIC ([2]; S. aureus (MSSA) 6499): 0.5 µg/mL (≈ 0.345 µM)
MIC ([2]; S. aureus (MSSA) 6500): 0.5 µg/mL (≈ 0.345 µM)
MIC ([2]; S. aureus (MSSA) 6502): 0.5 µg/mL (≈ 0.345 µM)
MIC ([3]; S. aureus (MRSA) 2167): 0.5 µg/mL (≈ 0.345 µM)
MIC ([3]; S. aureus (MRSA) 2168): 0.5 µg/mL (≈ 0.345 µM)
MIC ([3]; S. aureus (MRSA) 2169): 1 µg/mL (≈ 0.69 µM)
MIC ([3]; S. aureus (MRSA) 2170): 0.5 µg/mL (≈ 0.345 µM)
MIC ([3]; S. aureus (MRSA) 2171): 0.5 µg/mL (≈ 0.345 µM)
MIC ([3]; S. aureus (MRSA) 2293): 0.5 µg/mL (≈ 0.345 µM)
MIC ([3]; S. aureus (MRSA) 2294): 0.5 µg/mL (≈ 0.345 µM)
MIC ([3]; S. aureus (MRSA) 2295): 0.5 µg/mL (≈ 0.345 µM)
MIC ([3]; S. aureus (MRSA) 2296): 0.5 µg/mL (≈ 0.345 µM)
MIC ([3]; S. aureus (MRSA) 2297): 1 µg/mL (≈ 0.69 µM)
MIC ([3]; S. aureus (MRSA) 3880): 0.5 µg/mL (≈ 0.345 µM)
MIC ([3]; S. aureus (MRSA) 5373): 0.5 µg/mL (≈ 0.345 µM)
MIC ([3]; S. aureus (MRSA) 5666): 0.5 µg/mL (≈ 0.345 µM)
MIC ([3]; S. aureus (MRSA) 5702): 0.5 µg/mL (≈ 0.345 µM)
MIC ([3]; S. aureus (MRSA) 5999): 0.5 µg/mL (≈ 0.345 µM)
MIC ([3]; S. aureus (MRSA) 6165): 1 µg/mL (≈ 0.69 µM)
MIC ([3]; S. aureus (MRSA) 6169): 0.5 µg/mL (≈ 0.345 µM)
MIC ([3]; S. aureus (MRSA) 6174): 0.5 µg/mL (≈ 0.345 µM)
MIC ([3]; S. aureus (MRSA) 6311): 1 µg/mL (≈ 0.69 µM)
MIC ([3]; S. aureus (MRSA) 6312): 0.5 µg/mL (≈ 0.345 µM)
MIC ([3]; S. aureus (MRSA) 6313): 0.5 µg/mL (≈ 0.345 µM)
MIC ([3]; S. aureus (MRSA) 6315): 1 µg/mL (≈ 0.69 µM)
MIC ([3]; S. aureus (MRSA) 6320): 1 µg/mL (≈ 0.69 µM)
MIC ([3]; S. aureus (MRSA) 6498): 0.5 µg/mL (≈ 0.345 µM)
MIC ([3]; S. aureus (MRSA) 6501): 0.5 µg/mL (≈ 0.345 µM)
MIC ([3]; S. aureus (MRSA) 6505): 0.5 µg/mL (≈ 0.345 µM)
MIC ([3]; S. aureus (MRSA) 6506): 0.5 µg/mL (≈ 0.345 µM)
MIC ([3]; S. aureus (MRSA) NRS382/2119): 1 µg/mL (≈ 0.69 µM)
MIC ([3]; S. aureus (MRSA) NRS383/2120): 0.5 µg/mL (≈ 0.345 µM)
MIC ([3]; S. aureus (MRSA) NRS384/2011): 0.5 µg/mL (≈ 0.345 µM)
number of strains tested with MIC not ≤ 2 μg/mL [4]: 37
